ChEMBL document CHEMBL1201862, “PubChem BioAssay data set” (2004)
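Compound exposure: 48 hours, 5 concentrations, 96-well plates. GI50 is the concentration that inhibits growth by half.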 Activity calls are given as the source filed them. Rule as the data show it: active = GI50 up to about 1.1 µM and inactive = higher.

Columns and labels:
Test in all cases: DTP human tumour cell line panel, 48 h
OVCAR-3 = test system: OVCAR-3
SF-539 = test system: SF-539
UO-31 = test system: UO-31
SNB-78 = test system: SNB-78
NCI-H23 = test system: NCI-H23
A549 = test system: A549
HCC 2998 = test system: HCC 2998
SF-295 = test system: SF-295
HOP-92 = test system: HOP-92
OVCAR-8 = test system: OVCAR-8
HL-60 = test system: HL-60
UACC-62 = test system: UACC-62
Hs-578T = test system: Hs-578T
ACHN = test system: ACHN
U-251 = test system: U-251
A498 = test system: A498
HCT-15 = test system: HCT-15
SF-268 = test system: SF-268
PC-3 = test system: PC-3
SK-OV-3 = test system: SK-OV-3

Structure (SMILES) | GI50 (OVCAR-3) | GI50 (SF-539) | GI50 (UO-31) | GI50 (SNB-78) | GI50 (NCI-H23) | GI50 (A549) | GI50 (HCC 2998) | GI50 (SF-295) | GI50 (HOP-92) | GI50 (OVCAR-8) | GI50 (HL-60) | GI50 (UACC-62) | GI50 (Hs-578T) | GI50 (ACHN) | GI50 (U-251) | GI50 (A498) | GI50 (HCT-15) [µM] | GI50 (SF-268) | GI50 (PC-3) | GI50 (SK-OV-3)
CCc1nc2cc(/N=N/c3c(O)ccc4ccccc34)ccc2[nH]1 | 16.4 µM (inactive) | 18.1 µM (inactive) | 18.8 µM (inactive) | 15.5 µM (inactive) | 21.2 µM (inactive) | 21.4 µM (inactive) | 14.6 µM (inactive) | 20.8 µM (inactive) | 20.5 µM (inactive) | 14.5 µM (inactive) | 2.4 µM (inactive) | 18.2 µM (inactive) | 21.1 µM (inactive) | 17.1 µM (inactive) | 16 µM (inactive) | 21.5 µM (inactive) | 12.6 | 22.2 µM (inactive) | 14.6 µM (inactive) | 24.7 µM (inactive)
CCOC(=O)C12CCCC1(O)N(NC(=O)OC)C(C)=C2C(=O)OC (stereo not drawn) | > 10 µM (inactive) | > 100 µM (inactive) | > 100 µM (inactive) | > 100 µM (inactive) | > 100 µM (inactive) | > 100 µM (inactive) | > 100 µM (inactive) | > 10 µM (inactive) | > 100 µM (inactive) | > 100 µM (inactive) | > 100 µM (inactive) | > 100 µM (inactive) |  | > 100 µM (inactive) | > 100 µM (inactive) | > 100 µM (inactive) | > 100 | > 100 µM (inactive) |  | > 100 µM (inactive)
